Patent publication US20260035365A1, “1H-PYRROLO[3,2-B]PYRIDINE DERIVATIVES AS IRREVERSIBLE INHIBITORS OF MUTANT EGFR FOR THE TREATMENT OF CANCER” (Bayer Aktiengesellschaft, priority 2022, published 2026)

Tests used:
[1] = biological target: mutEGFR (D770_N771insSVD) (Homo sapiens, UniProt P00533, INS767SVD); experiment: Exon20-mutant-EGFR (D770_N771insSVD) TR-FRET kinase assay; type: biochemical; conditions: 2 mM ATP, 15 min preincubation
Method in brief: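 GST-fused human EGFR fragment R669-A1210 carrying the SVD insertion, Sf9-expressed, typically 15 pg/μl, was preincubated with compound for 15 min at 22° C in pH 7.0 Hepes/MgCl2 buffer. Phosphorylation was read by HTRF (665/620 nm ratio), normalised to no-inhibitor and no-enzyme controls.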

[2] = system: BA/F3 (insSVD) cells; experiment: Ba/F3 cell survival assay (Cell Titer-Glo), EGFR-insSVD; type: cell-based; conditions: Mus musculus, BaF3, 48 h, without IL-3, with EGF
Method in brief: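 Viability read by CellTiter-Glo luminescence after 48 h compound exposure at 37° C, 4000 cells/well. Retrovirally transduced, puromycin-selected Ba/F3 lines carrying EGFR-insSVD ± T790M grew IL-3-free with 10 ng/mL EGF for 2 days beforehand; compound delivered by 100 nL pin.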

[3] = system: BA/F3 (EGFR D770_N771 insSVD T790M) cells; experiment: Ba/F3 cell survival assay (Cell Titer-Glo), EGFR-insSVD T790M; type: cell-based; conditions: Ba/F3 EGFR-D770-N771ins_SVD; 48 h, without IL-3, with EGF
Protocol: 293T cells from ATCC were transfected with pBABEpuro expression constructs for WT EGFR or EGFR-insSVD, or EGFR-insSVD T790M, and pCL-Eco packaging vector using Fugene-6 transfection reagent from Promega. Plates were incubated at 37° C. for 48 h. Retrovirus was harvested by filtering the media supernatant through a 0.45 μm filter.
Ba/F3 cells purchased from DSMZ were grown in RPMI+10% FBS+10 ng/mL IL-3 and infected with filtered retroviral supernatant at a 1:2 dilution. Polybrene was added to a concentration of 8 μg/mL, plates were spun for 90 min, and incubated for 16 h at 37° C. 2 μg/mL puromycin was added to the infected cells 24 h after infection and cells were continually grown in the presence of puromycin and 10 ng/mL IL-3. Following stably expressing Ba/F3 cell lines were generated: Ba/F3-EGFR-WT, Ba/F3-EGFR-insSVD, Ba/F3-EGFR-insSVD T790M, (Ba/F3-vector-control).
For cell survival assays, Ba/F3 cells were grown to a density of 1-2 million cells per mL, spun down and resuspended in media without IL-3, and replated at a concentration of 200,000-500,000 cells per mL. The cells ectopically expressing WT EGFR, EGFR-insSVD, or EGFR-insSVD T790M were plated with 10 ng/mL Millipore Culture grade EGF. The cells ectopically expressing pBABEpuro empty vector were plated with 10 ng/mL IL-3.
2 days later, cells were plated in 50 μL in a 384 well plate at a concentration of 4000 cells per well for cells assayed in the absence of IL-3 and 2000 cells per well for cells assayed in the presence of IL-3. 100 nL of compound was added to each well using a 100 nL pin head, and plates were incubated at 37° C. for 48 h.
Cell viability was measured by adding 20 μL of Cell Titer-Glo Luminescent Cell Viability Reagent diluted 1:3 in PBS. Plates were sealed with Perkin Elmer Top-Seal, inverted several times to mix, and immediately centrifuged at 1000 rpm for 2 min. Plates were incubated in low light conditions for 8-10 min and luminescence was measured.

[4] = biological target: mutEGFR (D770_N771insNPG, T790); experiment: mutEGFR (D770_N771insNPG, T790) kinase assay; type: biochemical, human
Chain of mutEGFR (D770_N771insNPG, T790) (P00533 with tags, fused parts or gaps INS770NPG limits assumed): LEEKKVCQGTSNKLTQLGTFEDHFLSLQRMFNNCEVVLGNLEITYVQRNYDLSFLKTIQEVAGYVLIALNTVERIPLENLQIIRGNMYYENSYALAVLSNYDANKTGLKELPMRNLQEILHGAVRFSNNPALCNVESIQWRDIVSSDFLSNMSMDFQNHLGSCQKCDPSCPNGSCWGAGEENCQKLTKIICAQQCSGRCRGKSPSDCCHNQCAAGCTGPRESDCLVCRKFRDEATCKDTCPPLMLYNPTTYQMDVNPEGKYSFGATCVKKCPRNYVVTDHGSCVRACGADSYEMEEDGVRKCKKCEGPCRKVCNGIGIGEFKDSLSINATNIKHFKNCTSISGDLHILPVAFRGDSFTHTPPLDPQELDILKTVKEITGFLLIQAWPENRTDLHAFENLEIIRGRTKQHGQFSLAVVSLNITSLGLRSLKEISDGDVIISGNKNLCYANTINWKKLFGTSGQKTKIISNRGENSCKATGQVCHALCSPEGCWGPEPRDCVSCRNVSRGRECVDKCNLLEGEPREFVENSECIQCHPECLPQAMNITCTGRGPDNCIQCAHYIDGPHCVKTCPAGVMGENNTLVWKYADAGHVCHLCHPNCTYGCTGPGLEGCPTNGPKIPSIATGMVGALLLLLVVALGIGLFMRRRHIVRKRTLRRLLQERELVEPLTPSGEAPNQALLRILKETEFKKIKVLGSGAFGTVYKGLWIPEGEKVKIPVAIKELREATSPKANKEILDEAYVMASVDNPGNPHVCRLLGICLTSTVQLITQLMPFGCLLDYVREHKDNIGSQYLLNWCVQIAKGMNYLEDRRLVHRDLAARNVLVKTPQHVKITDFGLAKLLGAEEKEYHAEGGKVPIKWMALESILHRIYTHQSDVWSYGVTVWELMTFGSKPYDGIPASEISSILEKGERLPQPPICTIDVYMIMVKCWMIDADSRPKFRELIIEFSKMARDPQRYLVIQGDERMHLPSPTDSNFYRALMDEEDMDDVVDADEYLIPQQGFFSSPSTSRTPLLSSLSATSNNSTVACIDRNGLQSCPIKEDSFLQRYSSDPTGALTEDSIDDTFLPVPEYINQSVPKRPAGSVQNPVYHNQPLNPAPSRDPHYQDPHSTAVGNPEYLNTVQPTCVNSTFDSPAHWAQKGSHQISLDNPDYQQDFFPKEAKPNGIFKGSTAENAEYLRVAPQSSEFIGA

Chain of mutEGFR (D770_N771insSVD) (P00533 with tags, fused parts or gaps INS767SVD limits assumed): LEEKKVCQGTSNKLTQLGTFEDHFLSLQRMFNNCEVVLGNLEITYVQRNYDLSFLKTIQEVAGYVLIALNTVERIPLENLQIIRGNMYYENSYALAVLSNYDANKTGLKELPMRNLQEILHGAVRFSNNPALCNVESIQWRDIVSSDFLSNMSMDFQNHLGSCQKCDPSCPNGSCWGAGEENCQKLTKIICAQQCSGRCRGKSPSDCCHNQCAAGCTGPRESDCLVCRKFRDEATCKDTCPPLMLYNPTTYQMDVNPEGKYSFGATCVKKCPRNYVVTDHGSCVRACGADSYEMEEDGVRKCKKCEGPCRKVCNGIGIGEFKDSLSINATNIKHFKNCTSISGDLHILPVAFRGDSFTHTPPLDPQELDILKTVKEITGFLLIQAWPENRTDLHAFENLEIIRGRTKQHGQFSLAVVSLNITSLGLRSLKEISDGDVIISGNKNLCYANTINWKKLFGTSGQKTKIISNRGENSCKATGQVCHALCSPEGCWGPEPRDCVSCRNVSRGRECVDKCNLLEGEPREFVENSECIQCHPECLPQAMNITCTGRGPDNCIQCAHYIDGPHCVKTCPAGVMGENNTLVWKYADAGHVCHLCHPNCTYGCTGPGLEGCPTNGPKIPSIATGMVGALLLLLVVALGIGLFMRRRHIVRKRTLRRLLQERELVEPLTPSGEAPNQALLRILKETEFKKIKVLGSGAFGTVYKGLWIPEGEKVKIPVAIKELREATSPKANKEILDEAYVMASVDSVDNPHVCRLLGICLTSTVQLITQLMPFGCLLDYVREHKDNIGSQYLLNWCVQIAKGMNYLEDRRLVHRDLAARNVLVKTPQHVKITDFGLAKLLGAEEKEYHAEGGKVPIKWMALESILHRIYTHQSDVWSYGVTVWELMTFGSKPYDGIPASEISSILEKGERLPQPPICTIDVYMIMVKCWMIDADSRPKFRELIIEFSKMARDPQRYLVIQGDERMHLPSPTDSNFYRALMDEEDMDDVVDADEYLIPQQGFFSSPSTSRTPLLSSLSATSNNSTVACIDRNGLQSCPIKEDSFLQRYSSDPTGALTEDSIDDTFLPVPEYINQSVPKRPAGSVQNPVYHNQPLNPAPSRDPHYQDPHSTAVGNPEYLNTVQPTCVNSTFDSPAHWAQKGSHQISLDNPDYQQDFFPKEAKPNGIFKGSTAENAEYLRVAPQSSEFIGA

C=CS(=O)(=O)N1C[C@@H](C)C[C@H]1COc1cnccc1-c1[nH]c2cccnc2c1-c1ccccc1 [Example 111, 2-(3-{[(2S,4S)-1-(ethenesulfonyl)-4-methylpyrrolidin-2-yl]methoxy}pyridin-4-yl)-3-phenyl-1H-pyrrolo[3,2-b]pyridine]
IC50 [1]: 0.135 nM
IC50 [2]: 10.9 nM
IC50 [3]: 77.7 nM
IC50 [4]: 0.33 nM
